Measurements published in patent US20250388569A1, “HETEROCYCLIC COMPOUND FOR INHIBITING AND/OR INDUCING DEGRADATION OF KRAS PROTEIN” (ASTELLAS PHARMA INC., priority 2022, published 2025).

Key:
KRAS G12D = target: T1, KRAS G12D (Homo sapiens, UniProt P01116, G12D); test: Evaluation of KRAS degradation activity on AsPC-1 by Cell ELISA (Test Example 1); assay type: cell-based; conditions: degradation rate of KRAS G12D at 1 μM in AsPC-1 cells, cultured overnight, corrected with β-actin
T1 construct: host or cells: AsPC-1 human pancreatic cancer cells
Method: Test Example 1: Evaluation of KRAS Degradation Activity on Human G12D Mutant KRAS-Positive Pancreatic Cancer Line AsPC-1 (CRL-1682; ATCC)
The KRAS degradation activity of test compounds was evaluated by measuring the expression levels of KRAS G12D by Cell ELISA.
AsPC-1 cells were seeded at 20 μL per well on 384-well plates (from Greiner bio-one) to give 2.0×10^4 cells per well. As for the cell culture conditions, RPMI 1640 (from Sigma-Aldrich) medium containing 10% fetal bovine serum (from Cytiva) was used in the presence of 5% CO2 at 37° C.
The next day, the test compounds (10 points having final concentrations in the range of 10 μM to 0.3 nM) and DMSO (from FUJIFILM Wako Pure Chemical Corporation), which was the solvent for the test compounds, as a negative control were diluted 500-fold with a fresh medium and were added at 20 μL per well. The cells were cultured overnight.
The next day, the culture supernatant was removed, and 4% paraformaldehyde phosphate buffer (from FUJIFILM Wako Pure Chemical Corporation) was added at 20 μL per well. The plates were allowed to stand for 30 minutes at room temperature to thus immobilize the cells. Then, the supernatant was removed, and 0.1% Triton X-100 (from Amersham Biosciences)-containing Phosphate buffered saline (PBS; from FUJIFILM Wako Pure Chemical Corporation) was added at 20 μL per well. After allowing to stand for 10 minutes at room temperature, the supernatant was removed. PBS was added at 25 μL per well, and the supernatant was removed to thus wash each well. The washing was performed twice in total. Next, the supernatant was removed, and 0.5% sodium dodecyl sulfate (SDS; from Invitrogen)-containing PBS was added at 20 μL per well. After allowing to stand at room temperature for 10 minutes, the supernatant was removed by a centrifugal operation (using a centrifugal dehydrator machine, the supernatant was removed by the same method hereinafter). PBS was added at 25 μL per well, and the supernatant was removed to thus wash each well. The washing was performed twice in total. The supernatant was removed, and blocking solution (Intercept Blocking Buffer; from Li-COR Biosciences) was added at 20 μL per well. After allowing to stand for 30 minutes at room temperature, the supernatant was removed, and a solution obtained by diluting anti-β-actin antibody (Anti-beta Actin antibody [mAbcam 8226]-Loading Control; from abcam) 1,000-fold with blocking solution and a solution obtained by diluting anti-Ras (G12D Mutant Specific) antibody (Ras (G12D Mutant Specific) (D8H7) Rabbit mAb #14429; from Cell Signaling Technology) and anti-β-actin antibody (from abcam) 1,000-fold with blocking solution were respectively added to positive control wells and the other wells at 15 μL per well as a primary antibody. The plates were allowed to stand overnight at 4° C.
The next day, the supernatant was removed. PBS was added at 25 μL per well, and the supernatant was removed to thus wash each well. The washing was performed twice in total. The supernatant was removed, and a solution obtained by diluting Donkey anti-Mouse IgG H&L (IRDye 680RD) (from Li-COR Biosciences) and Goat anti-Rabbit IgG H&L (IRDye 800CW) (from Li-COR Biosciences) 1,000-fold with blocking solution was added at 15 μL per well as a secondary antibody. After allowing to stand for 1 hour at room temperature, the supernatant was removed. PBS was added at 25 μL per well, and the supernatant was removed to thus wash each well. The washing was performed twice in total. After removing the supernatant, the plates were dried with air at room temperature for 2 hours or more, and the 700 nm and 800 nm fluorescent signals were measured with Aerius (from Li-COR Biosciences). […]

[1] = tested on: human G12D mutant KRAS-positive pancreatic cancer line AsPC-1; test: Non-anchorage-dependent cell growth inhibitory effect, spheroid 3D cell culture (Test Example 2); assay type: cell-based; conditions: AsPC-1 spheroid 3D culture, 6 days, CellTiter Glo 2.0
Method: Test Example 2: Evaluation of Non-Anchorage-Dependent Cell Growth Inhibitory Effect on Human G12D Mutant KRAS-Positive Pancreatic Cancer Line AsPC-1
The non-anchorage-dependent cell growth inhibitory effect of test compounds was evaluated by spheroid 3D cell culture.
AsPC-1 cells were seeded on low-cell-adhesive round bottom 384-well plates (PrimeSurface: from Sumitomo Bakelite) at 36 μL/well to give 5×10^2 cells per well. As for the cell culture conditions, RPMI 1640 medium containing 10% fetal bovine serum was used in the presence of 5% CO2 at 37° C.
The next day, the test compounds (6 points having final concentrations in the range of 10 μM to 30 nM) and DMSO, which was the solvent for the test compounds, as a negative control were diluted 100-fold with a fresh medium and were added at 4 μL per well. After culturing in the presence of 5% CO2 at 37° C. for 6 days, CellTiter Glo 2.0 (from Promega) was added at 20 μL per well. After stirring with a plate mixer (from FINEPCR) at normal temperature for 1 hour, the luminescent signals were measured with ARVO X3 (from PerkinElmer).
With the signaling value in treatment with DMSO taken as 100% and with the signaling value in the medium alone without cells taken as 0%, the 50% inhibitory concentration values (IC50) were calculated by Sigmoid-Emax nonlinear regression analysis.

For `Cc1c(F)cc2[nH]ncc2c1-c1c(C2CC2)cc2c(N3C[C@@H]4C[C@H]3CN4)nc(OC3CCOCC3)nc2c1OCc1ccc(C(=O)N2CCN(C(=O)c3ccc4c(c3)CN(C(=O)c3cc(C(C)C)c(O)cc3O)C4)C[C@@H]2C)cc1` (atropisomer, axis not shown) [Example 2], the “% degradation” value (KRAS G12D) was 44% and the IC50 ([1]; Homo sapiens, ASPC1, 144 h) was 1.9 µM.
With `Cc1c(F)cc2[nH]ncc2c1-c1c(C2CC2)cc2c(N3C[C@@H]4C[C@H]3CN4)nc(OC3CCOCC3)nc2c1OCc1ccc(C(=O)N2CCN(C(=O)c3ccc4c(c3)CN(C(=O)c3cc(C(C)C)c(O)cc3O)C4)C[C@H]2C)cc1` (atropisomer, axis not shown) [Example 3] the “% degradation” value (KRAS G12D) was 46% and the IC50 ([1]; Homo sapiens, ASPC1, 144 h) was 2.8 µM.
In the case of `Cc1c(F)cc2[nH]ncc2c1-c1c(C2CC2)cc2c(N3C[C@@H]4C[C@H]3CN4)nc(OC3CCOCC3)nc2c1OCc1ccc(C(=O)N2C[C@H]3CN(Cc4ccc5c(c4)CN(C(=O)c4cc(C(C)C)c(O)cc4O)C5)C[C@H]3C2)cc1` (atropisomer, axis not shown) [Example 4], the “% degradation” value (KRAS G12D) is reported as 15% and the IC50 ([1]; Homo sapiens, ASPC1, 144 h) is reported as 5.1 µM.
With `Cc1c(F)cc2[nH]ncc2c1-c1c(C2CC2)cc2c(N3C[C@@H]4C[C@H]3CN4)nc(OC3CCOCC3)nc2c1OCc1ccc(C(=O)N2CCN(Cc3ccc4c(c3)CN(C(=O)c3cc(C(C)C)c(O)cc3O)C4)CC2)cc1` (atropisomer, axis not shown) [Example 6] the “% degradation” value (KRAS G12D) was 25% and the IC50 ([1]; Homo sapiens, ASPC1, 144 h) was 3.6 µM.
In the case of `Cc1c(F)cc2[nH]ncc2c1-c1c(C2CC2)cc2c(N3C[C@@H]4C[C@H]3CN4)nc(OC3CCOCC3)nc2c1OCc1ccc(C(=O)N2CCCN(Cc3ccc4c(c3)CN(C(=O)c3cc(C(C)C)c(O)cc3O)C4)CC2)cc1` (atropisomer, axis not shown) [Example 7], the “% degradation” value (KRAS G12D) is reported as 20%.
For `Cc1c(F)cc2[nH]ncc2c1-c1c(C2CC2)cc2c(N3C[C@@H]4C[C@H]3CN4)nc(OC3CCOCC3)nc2c1OCc1ccc(C(=O)N2CCC3(CC2)CN(Cc2ccc4c(c2)CN(C(=O)c2cc(C(C)C)c(O)cc2O)C4)C3)cc1` (atropisomer, axis not shown) [Example 10], the “% degradation” value (KRAS G12D) was 37% and the IC50 ([1]; Homo sapiens, ASPC1, 144 h) was 3.7 µM.
With `Cc1c(F)cc2[nH]ncc2c1-c1c(C2CC2)cc2c(N3C[C@@H]4C[C@H]3CN4)nc(OC3CCOCC3)nc2c1OCc1ccc(C(=O)N2CCN(C3CCN(Cc4ccc5c(c4)CN(C(=O)c4cc(C(C)C)c(O)cc4O)C5)CC3)CC2)cc1` (atropisomer, axis not shown) [Example 11] the “% degradation” value (KRAS G12D) was 51% and the IC50 ([1]; Homo sapiens, ASPC1, 144 h) was 2.9 µM.
`Cc1c(F)cc2[nH]ncc2c1-c1c(C2CC2)cc2c(N3C[C@@H]4C[C@H]3CN4)nc(OC3CCOCC3)nc2c1OCc1ccc(C(=O)N2CCN(CC3CN(Cc4ccc5c(c4)CN(C(=O)c4cc(C(C)C)c(O)cc4O)C5)C3)CC2)cc1` (atropisomer, axis not shown) [Example 12] was tested, and the “% degradation” value (KRAS G12D) was 20% and the IC50 ([1]; Homo sapiens, ASPC1, 144 h) was 3.5 µM.
`CO[C@@H](O)COc1nc(N(C)[C@H]2CCNC2)c2cc(C3CC3)c(-c3c(C)c(F)cc4[nH]ncc34)c(OCc3ccc(C(=O)N4CCN(C(=O)c5ccc6c(c5)CN(C(=O)c5cc(C(C)C)c(O)cc5O)C6)C[C@@H]4C)cc3)c2n1` (atropisomer, axis not shown) [Example 13] was tested, and the “% degradation” value (KRAS G12D) was 57% and the IC50 ([1]; Homo sapiens, ASPC1, 144 h) was 2 µM.
`Cc1c(F)cc2[nH]ncc2c1-c1c(C2CC2)cc2c(N3C[C@@H]4C[C@H]3CN4)nc(OC3CCOCC3)nc2c1OCc1ccc(CN2CCN(C(=O)c3ccc4c(c3)CN(C(=O)c3cc(C(C)C)c(O)cc3O)C4)CC2)cc1` (atropisomer, axis not shown) [Example 15] was tested, and the “% degradation” value (KRAS G12D) was 17% and the IC50 ([1]; Homo sapiens, ASPC1, 144 h) was 3.9 µM.
For `Cc1c(F)cc2[nH]ncc2c1-c1c(C2CC2)cc2c(N3C[C@@H]4C[C@H]3CN4)nc(OC3CCOCC3)nc2c1OCc1ccc(C(=O)N2CCN(CCCOc3ncc4c(n3)CCN(C(=O)c3cc(C(C)C)c(O)cc3O)C4)CC2)cc1` (atropisomer, axis not shown) [Example 19], the IC50 ([1]; Homo sapiens, ASPC1, 144 h) was 2.3 µM.
For `Cc1c(F)cc2[nH]ncc2c1-c1c(C2CC2)cc2c(N3C[C@@H]4C[C@H]3CN4)nc(OC3CCOCC3)nc2c1OCc1ccc(C(=O)N2CCN(C(=O)c3ccc4c(c3)CN(C(=O)c3cc(C(C)C)c(O)cc3O)C4)CC2)cc1` (atropisomer, axis not shown; (M)) [Example 1, [5-(4-{4-[({(7M)-6-cyclopropyl-4-[(1S,4S)-2,5-diazabicyclo[2.2.1]heptan-2-yl]-7-(6-fluoro-5-methyl-1H-indazol-4-yl)-2-[(oxan-4-yl)oxy]quinazolin-8-yl}oxy)methyl]benzoyl)piperazine-1-carbonyl)-1,3-dihydro-2H-isoindol-2-yl][2,4-dihydroxy-5-(propan-2-yl)phenyl]methanone], the “% degradation” value (KRAS G12D) was 43% and the IC50 ([1]; Homo sapiens, ASPC1, 144 h) was 3.3 µM.
`Cc1c(F)cc2[nH]ncc2c1-c1c(C2CC2)cc2c(N3C[C@@H]4C[C@H]3CN4)nc(OC3CCOCC3)nc2c1OCc1ccc(C(=O)N2C3CCC2CN(Cc2ccc4c(c2)CN(C(=O)c2cc(C(C)C)c(O)cc2O)C4)C3)cc1` [Example 9] showed an IC50 ([1]; Homo sapiens, ASPC1, 144 h) of 3.4 µM.
`CO[C@@H](C)COc1cc(O[C@H]2CCNC2)c2cc(C3CC3)c(-c3c(C)c(F)cc4[nH]ncc34)c(OCc3ccc(C(=O)N4CCN(C(=O)c5ccc6c(c5)CN(C(=O)c5cc(C(C)C)c(O)cc5O)C6)C[C@@H]4C)cc3)c2n1` [Example 16] was tested, and the “% degradation” value (KRAS G12D) was 30%.
For `Cc1c(F)cc2[nH]ncc2c1-c1c(C2CC2)cc2c(N3C[C@@H]4C[C@H]3CN4)nc(OC3CCOCC3)nc2c1OCc1ccc(C(=O)N2CCN(C(C)C(=O)c3ccc4c(c3)CN(C(=O)c3cc(C(C)C)c(O)cc3O)C4)CC2)cc1` (stereo partly shown) [Example 18], the “% degradation” value (KRAS G12D) was 20% and the IC50 ([1]; Homo sapiens, ASPC1, 144 h) was 7.4 µM.
With “{4-[({(7M)-6-cyclopropyl-4-[(1S,4S)-2,5-diazabicyclo[2.2.1]heptan-2-yl]-7-(6-fluoro-5-methyl-1H-indazol-4-yl)-2-[(oxan-4-yl)oxy]quinazolin-8-yl}oxy)methyl]phenyl) {4-[(4-{3-[2,4-dihydroxy-5-(propan-2-yl)phenyl]-5-hydroxy-4H-1,2,4-triazol-4-yl)phenyl)methyl]piperazin-1-yl}methanone [Example 5]” the “% degradation” value (KRAS G12D) was 46% and the IC50 [1] was 2.2 µM.
